Patent US20160324818A1, “DIET FOOD COMPOSITION INCLUDING DHA TO REDUCE SHORT-TERM AND LONG-TERM LOW-GRADE INFLAMMATION” (PRI S.A., priority 2013, published 2016)

How the values were obtained:
Format in all cases: in vivo, human (obese patients, average BMI=33)
PD1 = assay: Slimming study: blood level of anti-inflammatory marker PD1; details: day 60; control group reduced by 36%
Method: (§1) A study under medical supervision was conducted among obese patients (average BMI=33). The subjects were separated into two groups: • a “control” group consuming food compositions similar to those of the invention but without DHA; and • a “study” group consuming food compositions according to the invention comprising DHA.
At the start of the program as well as after 30 days if necessary, then 60 days and at the end of 6 months the subjects underwent a blood test in order to evaluate their levels of pro-inflammatory and anti-inflammatory markers depending on their increase or loss of weight. The markers or molecules indicating the presence of inflammation that were tested for were leucocytes, neutrophils, the reactive protein C (PRC), TNF-α, interleukin 6, leptin, resistin and adiponectin. […]

[1] = Slimming study under medical supervision: weight loss and waistline
Method: as §1
For the first 60 days of the study, the patients in the study group each received 500 mg of DHA per day solely through the consumption of food compositions and portions according to the invention. Their calorie intake was below 800 kcals per day and was presented chiefly in the form of food compositions or portions according to the invention. To be more precise, the patients consumed five food portions according to the invention during the day, two of them during the main meals where the portions were accompanied by vegetables in order to ensure their DHA intake especially. […] The goal was to re-educate the patient in terms of food intake. Traditional foods were gradually re-introduced into the patient's daily food intake in order to avoid deficiency and fatigue as well as to re-educate him or her on the food intake level.
The progress of the waistline measurements in the two groups of patients is shown in the graph of FIG. 2. The waistline measurement makes it possible to evaluate loss of abdominal fat, a parameter associated with the metabolic syndrome. […]

[2] = tested on: ultrasensitive reactive protein C (PRCus); assay: Slimming study: blood level of ultrasensitive reactive protein C; details: DHA every day during slimming diet (FIG. 3); control group 12%
Method: as §1
At the start of the program as well as after 30 days if necessary, then 60 days and at the end of 6 months the subjects underwent a blood test in order to evaluate their levels of pro-inflammatory and anti-inflammatory markers depending on their increase or loss of weight. The markers or molecules indicating the presence of inflammation that were tested for were leucocytes, neutrophils, the reactive protein C (PRC), TNF-α, interleukin 6, leptin, resistin and adiponectin.
For the first 60 days of the study, the patients in the study group each received 500 mg of DHA per day solely through the consumption of food compositions and portions according to the invention. Their calorie intake was below 800 kcals per day and was presented chiefly in the form of food compositions or portions according to the invention. […]
It can be seen from FIGS. 3 and 4 that there was a diminishing of the pro-inflammatory markers. Two inflammation markers associated with obesity were tested for and their levels were measured: these were ultrasensitive reactive protein C (PRCus) and leptin.

CC/C=C\C/C=C\C/C=C\C/C=C\C/C=C\C/C=C\CCC(=O)O [DHA, docosahexaenoic acid]
change of PD1 level as compared with day 0 (PD1): +83%
average weight loss ([1]; 6 months (D-180) from D-0, same figure stated for both groups): about 20 kg
average loss in waistline measurement ([1]; end of 60 days, same figure stated for each group): about 15 cm
reduction of PRC rate [2]: approximately 18%
